Results from US11882846B2, “Use of kefir peptide for improving or treating depressive behaviors and related diseases” (National Chung Hsing University, priority 2021, dated 2024).
Counter-ions that a name gives are not always drawn.

Columns and labels:
[1] = system: BDNF (brain-derived neurotrophic factor); test: BDNF mRNA expression in hippocampal tissues, quantitative RT-PCR; format: in vivo, mice; details: oral treatment for 8 days; compared with first group (distilled water)
Procedure: (§1) Take 5-week-old CD-1 mice, provide standard laboratory animal feed (Altromin, Germany) and distilled water (dH2O), and keep them for 12 hours at 22-24° C. for light/dark cycles. Before starting the test, each group of mice are raised in an experimental animal room for 1 week to adapt to the environment, and then the mice are randomly divided into 4 groups, and the mice in each of the groups are treated and raised for 8 days (referred to as the first day of rearing to the eighth day of rearing) according to the following conditions: • the first group: take distilled water orally; • the second group: take 150 mg/kg milk powder orally; • the third group: take 150 mg/kg kefir fermentation product orally; and • the fourth group: take 10 mg/kg drug trazodone hydrochloride orally.
(§2) After the test, the mice in each of the groups are anesthetized and their hippocampal tissues are isolated, and frozen and preserved for use in subsequent examples.
(§3) Expressions of protein and mRNA in the hippocampal tissues of the mice in each of the groups in Example 2 are assessed by quantitative RT-PCR method and western blot analysis, and the results are shown in FIG. 6 and FIG. 7, respectively.

CD-1 mice [2] = test: Open field test (OFT); format: in vivo; details: 8th day of rearing, 30 minutes after oral treatment, 5 minutes in open field; compared with first group (distilled water)
Procedure: as §1
The mice in each of the groups in Example 2 are treated according to the above conditions for 30 minutes on the 8th day of rearing, and then an open field test is carried out. Specifically, the mice in each of the groups are first placed in an open field (45×45×40 cm) for 5 minutes, their travel paths and travel speeds are observed respectively, and the time it takes to reach the centers and the time spent at a fixed position are calculated.

Erk1/2 = Erk1/2 and p-Erk1/2 protein in hippocampal tissues, western blot; format: in vivo, mice; details: oral treatment for 8 days, compared with first group (distilled water)
Procedure: as §1, §2, §3

CD-1 mice [3] = test: Forced swimming test (FST); format: in vivo; details: 7th day of rearing, 30 minutes after oral treatment, testing time 6 minutes; kefir fermentation product 150 mg/kg, trazodone hydrochloride 10 mg/kg; average±standard deviation
Procedure: as §1
The mice in each of the groups of Example 2 are treated for 30 minutes according to the above conditions on the 7th day of rearing, and then a swimming test is carried out, testing time is 6 minutes. Movement and immobility time are measured and analyzed with a camera. The results are shown in FIG. 4, wherein the immobility time is a period of time without active movement but only floating in the water; the movement time is a period of time with active movement or circular movement.

TrkB = TrkB and p-TrkB protein in hippocampal tissues, western blot; format: in vivo, mice; details: oral treatment for 8 days, compared with first group (distilled water)
Procedure: as §1, §2, §3

CD-1 mice [4] = test: Elevated plus maze test (EPMT); format: in vivo; details: 7th day of rearing, 6 hours after oral treatment, 5 minutes observed; compared with first group (distilled water); 150 mg/kg milk powder or kefir fermentation product, 10 mg/kg trazodone hydrochloride
Procedure: as §1
The mice in each of the groups of Example 1 are treated for 6 hours according to the above conditions on the 7th day of rearing, and then an elevated plus maze test is performed, and paths of the mice in each of the groups within 5 minutes are observed with a camera. The results are shown in FIGS. 2A to 2D, and the time of the mice in each of the groups spent on open arms or closed arms in the elevated plus maze is analyzed, and the results are shown in FIG. 2E to FIG. 2H.

CD-1 mice [5] = test: Tail suspension test (TST); format: in vivo; details: 7th day, 30 minutes after oral treatment, 6 minute test, measured in the last 4 minutes; kefir fermentation product 150 mg/kg, peptides 10 mg/kg; average±standard deviation
Procedure: Refer to the steps of Example 2, the CD-1 mice are randomly divided into five groups and raised under the following conditions: • the first group: take distilled water orally; • the second group: take 150 mg/kg kefir fermentation product orally; • the third group: take the peptide 1 (10 mg/kg) disclosed in Example 1 orally, and the amino acid sequence is SEQ ID No: 1; • the fourth group: take the peptide 2 (10 mg/kg) disclosed in Example 1 orally, and the amino acid sequence is SEQ ID No: 2; and • the fifth group 5: take the peptide 3 (10 mg/kg) disclosed in Example 1 orally, and the amino acid sequence is SEQ ID No: 3.
When the mice in each of the groups are raised to the 7th day, after 30 minutes of treatment according to the following conditions, a tail suspension test is carried out for 6 minutes, and the immobility time is measured in the last 4 minutes. The results are shown in FIG. 5, wherein the immobility time refers to a period of time in which the mice are suspended and completely still.

With `O=c1n(CCCN2CCN(c3cccc(Cl)c3)CC2)nc2ccccn12` [trazodone hydrochloride] the “expression of BDNF mRNA in hippocampal tissues” value [1] was “significantly improved”, the “movement distance in an open field” value (CD-1 mice [2]) was “move a longer distance” and the “movement speed in an open field” value (CD-1 mice [2]) was “move faster”. For the same compound, the “time spent at a fixed position in an open field” value (CD-1 mice [2]) was “spend less time at a certain fixed position”, the “expression level of total Erk1/2 protein in hippocampal tissues” value (Erk1/2) was “have not change significantly” and the “phosphorylation status p-Erk1/2/Erk1/2 in hippocampal tissues” value (Erk1/2; P<0.05) was “increases significantly”. The “immobility time in swimming test” value (CD-1 mice [3]) was 0.9 ± 0.2 min, the “movement time in swimming test” value (CD-1 mice [3]) was 3.1 ± 0.3 min and the “expression level of total TrkB protein in hippocampal tissues” value (TrkB) was “have not change significantly”. The “phosphorylation status p-TrkB/TrkB in hippocampal tissues” value (TrkB; P<0.05) was “increases significantly” and the “paths of the mice in the elevated plus maze (movement to the open arms)” value (CD-1 mice [4]) was “move to the open arms”.

In the case of “peptide 3: KLHLPLPLVQSWM, SEQ ID No: 3; peptide isolated from kefir fermentation product, can also be chemically synthesized (artificiall obtained)”, the “immobility time in tail suspension test” value (CD-1 mice [5]) is reported as 1.8 ± 0.3 min and the “movement time in tail suspension test” value (CD-1 mice [5]) is reported as 2.2 ± 0.3 min.

For “peptide 2: YQEPVLGPVRGPFPI, SEQ ID No: 2; the kefir peptide of the invention, isolated from kefir fermentation product (artificiall obtained)”, the “immobility time in tail suspension test” value (CD-1 mice [5]) was 1.0 ± 0.2 min and the “movement time in tail suspension test” value (CD-1 mice [5]) was 3.0 ± 0.2 min.
